Entries after “also recorded” stand apart in the source; their conditions may differ.
Tests used:
[1] = system: HeLa human cervical cancer cells; test: Western blot analysis of LC3 and p62 (autophagy) in HeLa cells; format: cell-based
Method: (§1) HEK293T cell was cultured in Dulbecco modified eagle medium (DMEM) with 10% (v/v) fetal bovine serum (FBS) and 1% (v/v) antibiotic-antimycotic solution. HeLa, DU145, and Ca Ski cells were cultured in RPMI 1640 medium with 10% (v/v) FBS and 1% (v/v) antibiotic-antimycotic solution. The cells were cultured in 100-mm culture dish in an incubator at 37° C., in 5% CO2.
Cells were lysed with Radio-ImmunoPrecipitation Assay (RIPA) buffer (50 mM Tris, pH 7.8, 150 mM NaCl, 0.5% deoxycholate, 1% IGEPAL CA-630, protease inhibitor cocktail, and phosphatase inhibitors). Protein was obtained by transferring supernatant after centrifugation at 15000 rpm for 20 min. Protein concentration was measured with Micro BCA™ protein assay kit. Overall protein sampling procedure was done at 4° C. Prepared protein samples were analyzed with SDS-PAGE. Protein after electrophoresis was transferred into nitrocellulose membrane. Membrane was blocked with TBST mixed with 2% BSA over at least 1 h at r.t. Primary antibodies were incubated overnight at 4° C. The treatment concentration was as follows: Anti-LC3B (ab51520); 1:1000, anti-S6K1 (ab32359); 1:1000, anti-phospho-T389 S6K1 (ab2571); 1:800, anti-p62 (CST 5114); 1:1000, anti-glyceraldehyde-3-phosphate dehydrogenase (GAPDH) (CST 2118); 1:1000, anti-phospho-S65 4E-BP1 (CST 9451); 1:1000, anti-phospho-S757 ULK1 (CST 6888); 1:800, anti-phospho-S473 Akt (CST 4058); 1:1000, anti-phospho-T172 AMPKα (CST 2531). After washing with TBST, HRP-labeled anti-rabbit IgG secondary antibody was treated at room temperature for 1 h. After washing with TBST, developing by Amersham ECL prime solution was done. Chemiluminescent signal was imaged by ChemiDoc™ MP imaging system.

AMPK signaling pathways = test: Western blotting, phospho-T172 AMPKα in HEK293T cells; format: cell-based
Method: as §1
(§2) Cells were lysed with Radio-ImmunoPrecipitation Assay (RIPA) buffer (50 mM Tris, pH 7.8, 150 mM NaCl, 0.5% deoxycholate, 1% IGEPAL CA-630, protease inhibitor cocktail, and phosphatase inhibitors). Protein was obtained by transferring supernatant after centrifugation at 15000 rpm for 20 min. Protein concentration was measured with Micro BCA™ protein assay kit. Overall protein sampling procedure was done at 4° C. Prepared protein samples were analyzed with SDS-PAGE. Protein after electrophoresis was transferred into nitrocellulose membrane. Membrane was blocked with TBST mixed with 2% BSA over at least 1 h at r.t. Primary antibodies were incubated overnight at 4° C. […]

mTORC1 [2] = test: Western blotting, mTORC1 signalling pathway in HEK293T cells; format: cell-based
Method: HEK293T cell was cultured in Dulbecco modified eagle medium (DMEM) with 10% (v/v) fetal bovine serum (FBS) and 1% (v/v) antibiotic-antimycotic solution. […] The cells were cultured in 100-mm culture dish in an incubator at 37° C., in 5% CO2.
Cells were lysed with Radio-ImmunoPrecipitation Assay (RIPA) buffer (50 mM Tris, pH 7.8, 150 mM NaCl, 0.5% deoxycholate, 1% IGEPAL CA-630, protease inhibitor cocktail, and phosphatase inhibitors). Protein was obtained by transferring supernatant after centrifugation at 15000 rpm for 20 min. Protein concentration was measured with Micro BCA™ protein assay kit. Overall protein sampling procedure was done at 4° C. Prepared protein samples were analyzed with SDS-PAGE. Protein after electrophoresis was transferred into nitrocellulose membrane. Membrane was blocked with TBST mixed with 2% BSA over at least 1 h at r.t. Primary antibodies were incubated overnight at 4° C. […] After washing with TBST, HRP-labeled anti-rabbit IgG secondary antibody was treated at room temperature for 1 h. After washing with TBST, developing by Amersham ECL prime solution was done. Chemiluminescent signal was imaged by ChemiDoc™ MP imaging system.

Human LRS proteins = molecular target: T1, Human LRS proteins (Homo sapiens, UniProt Q9P2J5); test: Surface plasmon resonance (SPR) binding to LRS
T1 construct: His
T1 sequence (Q9P2J5 whole entry): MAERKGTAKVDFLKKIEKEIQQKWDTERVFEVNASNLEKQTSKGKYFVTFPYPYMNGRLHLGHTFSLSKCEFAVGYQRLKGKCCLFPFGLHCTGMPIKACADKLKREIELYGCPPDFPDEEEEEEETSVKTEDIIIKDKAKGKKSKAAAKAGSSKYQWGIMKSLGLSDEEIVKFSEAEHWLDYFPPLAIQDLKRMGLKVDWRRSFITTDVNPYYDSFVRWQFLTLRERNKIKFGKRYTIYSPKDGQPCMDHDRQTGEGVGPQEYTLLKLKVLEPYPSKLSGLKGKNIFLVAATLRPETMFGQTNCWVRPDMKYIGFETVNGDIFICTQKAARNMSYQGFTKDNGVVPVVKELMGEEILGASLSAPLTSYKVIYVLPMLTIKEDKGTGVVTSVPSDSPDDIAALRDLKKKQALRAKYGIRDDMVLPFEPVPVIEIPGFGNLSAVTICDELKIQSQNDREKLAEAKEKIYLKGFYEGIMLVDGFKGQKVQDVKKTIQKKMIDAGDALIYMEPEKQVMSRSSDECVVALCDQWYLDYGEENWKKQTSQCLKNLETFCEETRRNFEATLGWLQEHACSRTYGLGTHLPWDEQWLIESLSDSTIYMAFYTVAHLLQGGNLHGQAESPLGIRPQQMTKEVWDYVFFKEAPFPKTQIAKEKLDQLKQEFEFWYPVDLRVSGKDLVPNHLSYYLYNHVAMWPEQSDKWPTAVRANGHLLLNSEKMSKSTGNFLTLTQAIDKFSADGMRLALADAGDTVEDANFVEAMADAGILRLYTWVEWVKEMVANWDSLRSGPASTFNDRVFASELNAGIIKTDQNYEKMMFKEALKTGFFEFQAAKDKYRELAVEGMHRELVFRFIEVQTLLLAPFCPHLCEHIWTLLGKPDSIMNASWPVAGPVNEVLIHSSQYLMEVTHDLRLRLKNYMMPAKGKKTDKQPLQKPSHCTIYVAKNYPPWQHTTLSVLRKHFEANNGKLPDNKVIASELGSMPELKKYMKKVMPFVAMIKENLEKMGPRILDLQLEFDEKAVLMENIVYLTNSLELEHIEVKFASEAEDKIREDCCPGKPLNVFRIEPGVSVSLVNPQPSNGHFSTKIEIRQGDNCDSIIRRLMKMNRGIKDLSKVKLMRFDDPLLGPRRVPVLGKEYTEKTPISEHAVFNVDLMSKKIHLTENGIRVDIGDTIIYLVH
Method: The dissociation […] constant (KD) toward His-LRS proteins was determined by using SPR instrument (Biacore T100) at the national center for inter-university research facilities (NCIRF) in Seoul National University. The carboxyl group on the surface of CMS chip was able to be replaced with protein by forming reactive succinimide ester with 1-ethyl-3-(3-dimethylaminopropyl)-carbodiimide (EDC) and N-hydroxysuccinimide (NHS). Human LRS proteins (1.5×PBS, pH 7.3) were immobilized on flow cell 2 (imed RU; 12000) by leading to amide bond formation with NHS ester. The residual NHS ester was quenched with 1 M ethanolamine-HCl (pH 8.0). Amide bond formation alone, without any protein t, was performed on flow cell 1 as a control. The immobilization process was proceeded on PBS buffer. After the immobilization of hLRS, compounds were flowed for 60 s at a flow rate of 20 μl min^−1 in various concentrations from 1 μM to […] was then flowed at the same flow rate for 200 s for dissociation of compounds. As a running buffer, 1×PBS (pH 7.3) containing 3% DMSO and 0.005% P2O was used. The experiment was performed at 25° C. Data analysis was done by using Biacore T100 Evaluation software. […] The dissociation constant (KD) was calculated by fitting to the 1:1 binding model.

mTORC1 [3] = test: Western blotting, mTORC1 signalling in DU145 cells; format: cell-based
Method: as §1, §2

HeLa cells = test: mCherry-GFP-LC3 puncta imaging; format: cell-based, human; conditions: 6 h, 200 nM Rap, 10 nM Baf, 20 μM 21f
Method: HeLa cells were seeded in chambered coverglass from Nunc and incubated for 24 h. mCherry-GFP-LC3 plasmid was transfected to the cells using Lipofectamine™ 2000 solution. Transfection was proceeded according to manufacturer's protocol.
DeltaVision Elite imaging system was used for the imaging of mCherry-GFP-LC3 transfected HeLa cell. For live-cell imaging, chamber was maintained at 37° C. and in 5% CO2. […] The wavelength range of the used filters is as follows: mCherry (Excitation: 575/25 nm, Emission: 625/45 nm); GFP (Excitation: 475/28 nm, Emission: 525/48 nm). Images were processed and analyzed with SoftWorks deconvolution software.

HEK293T cells = test: Cell proliferation assay (BrdU); format: cell-based; conditions: 5 μM, in the presence of Leu
Method: HEK293T cells were seeded in 96-well plate from CORNING. 24 h after seeding, the compound diluted with DMEM at 5 μM of final concentration was treated in cells while leucine-free DMEM was treated in cells as a control. Cell division assay was done with WSTs assay and BrdU colorimetric kit, following the manufacturer's protocol.

LRS-RagD interaction = LRS-RagD interaction (Homo sapiens, UniProt Q9P2J5); test: ELISA of LRS-RagD interaction; format: binding
Chain of LRS-RagD interaction (Q9P2J5 whole entry): as above
Method: His-tagged human LRS proteins were diluted in carbonate buffer (100 mM, pH 9.6) to the concentration of 0.5 ng μl^−1. […] Protein from each well was removed and washed three times with PBS mixed with 0.05% Tweed® 20 (PBST), subjected to blocking with PBS containing 5% bovine serum albumin (BSA) for 2 hours. Each well was washed with PBST, followed by the treatment of a compound and GST-tagged human RagD protein simultaneously for 3 hours. GST protein itself was used as a negative control. Each well was treated with GST antibody diluted in PBST and incubated at room temperature for 1 h. After washing with PBST, the HRP-conjugated anti-horse IgG secondary antibody was incubated at room temperature for 1 h. TMB was added to each well for colorimetric development. […] To stop the chemical reaction, the treatment with 1 m H3PO4 was done. Finally, absorbance at 450 nm were measured.

[4] = system: mTORC2 signaling pathways; test: Western blotting, phospho-S473 Akt in HEK293T cells; format: cell-based
Method: as §1, §2

mTORC1 [5] = test: Western blotting, mTORC1 signalling in Ca Ski cells; format: cell-based
Method: as §1, §2

[6] = 6 h, 200 nM Rap, 10 nM Baf, 20 μM 21f, compared with DMSO
[7] = HEK293T cells, 20, 10, 5 and 1 μM, 3 h

Structure (SMILES): Cc1cc(C)cc(CN2C[C@H]3CN3Cc3c(N(C)Cc4ccccc4)ncnc32)c1 (stereo partly shown) [Compound 21f]
- LC3 I/LC3 II ratio [1, 6]: lowering LC3 I/LC3 II ratio
- p62 level [1, 6]: stimulated the degradation of p62; also recorded: reducing p62 level
- cellular level of LC3 II ([1]; in the presence of Leu): increased the cellular level of LC3 II
- phospho-T172 AMPKα, time course (AMPK signaling pathways; HEK293T cells, 10 μM, 0-24 h): no effects
- phospho-T172 AMPKα (AMPK signaling pathways; [7]): no effects
- inhibition degree against phospho-S757 ULK1 (mTORC1 [2]; HEK293T cells, 0-24 h, 21f 10 μM, rapamycin 500 nM): high inhibition degree
- Phospho-T389 S6K1, time course (mTORC1 [2]; HEK293T cells, 10 μM, 0-24 h): reduced in cells treated with 21f as time passed
- duration of the effect on mTORC1 within cells (mTORC1 [2]; HEK293T cells, 10 μM, 0-24 h): at least 12 h
- phospho-S65 4E-BP1, time course (mTORC1 [2]; HEK293T cells, 10 μM, 0-24 h): reduced in cells treated with 21f as time passed
- phospho-S757 ULK1, time course (mTORC1 [2]; HEK293T cells, 10 μM, 0-24 h): reduced in cells treated with 21f as time passed
- amount of phospho-T389 S6K1 (mTORC1 [2]; HEK293T cells, 20 μM, 3 h): reduced amount of phospho-T389 S6K1
- phosphorylation suppression of S6K1 by western blotting (mTORC1 [2]; HEK293T cells, 20 μM, 3 h, phospho-T389 S6K1 relative to DMSO): 48.9%
- Phospho-T389 S6K1 (mTORC1 [2]; [7]): reduced in cells treated with 21f in a dose-dependent manner
- phospho-S65 4E-BP1 (mTORC1 [2]; [7]): reduced in cells treated with 21f in a dose-dependent manner
- phospho-S757 ULK1 (mTORC1 [2]; [7]): reduced in cells treated with 21f in a dose-dependent manner
- Kd (Human LRS proteins): 4.5 µM
- concentration-dependent binding to LRS (SPR) (Human LRS proteins; purified LRS): concentration-dependent binding to LRS
- western blotting results, procedure of FIG. 15d (mTORC1 [3]): same as those from HEK293T cells
- mCherry and GFP fluorescence (mCherry-GFP-LC3) (HeLa cells): red fluorescence
- cellular division level by BrdU assay (HEK293T cells): suppressed cell proliferation even in the presence of Leu; also recorded: cellular division was inhibited as treatment time passed
- dose-dependent inhibition of the LRS-RagD interaction (dose-response curves in ELISA) (LRS-RagD interaction): inhibit the LRS-RagD interaction in a dose-dependent manner
- reduction of LRS-RagD interaction by ELISA (LRS-RagD interaction): 30.2%
- phospho-S473 Akt, time course ([4]; HEK293T cells, 10 μM, 0-24 h): no effects
- phospho-S473 Akt [4, 7]: no effects
- western blotting results, procedure of FIG. 15d (mTORC1 [5]): same as those from HEK293T cells

Reference: patent US11535627B2, “Pyrimidine derivative compound, pharmaceutically acceptable salt thereof, preparation process thereof, and pharmaceutical composition using the same” (Spark Biopharma, Inc., priority 2016, dated 2022)
